Patent publication US20050245497A1, “Treatment of ophthalmic conditions” (priority 2004, published 2005)

Legend:
[1] = system: bacterial endotoxin induced exudative response; assay: Bacterial endotoxin induced exudative response in rabbits, anterior chamber fluorophotometry of FITC-dextran; format: in vivo, New Zealand albino rabbits; conditions: topical 4 mg/ml; for exudative response (result in words) / reduction in the exudative response: treated eye versus saline control eye; for exudative response (result in words): n=5; for Anterior Chamber Fluorophotometer Results, Mean: Mean of 5 rabbits; for Anterior Chamber Fluorophotometer Results, Mean / Anterior Chamber Fluorophotometer Results: treated right eye, FITC-dextran fluorescence 90 minutes after endotoxin; for Anterior Chamber Fluorophotometer Results: 50 μL drop at 0, 1, 2 and 3 hours; for reduction in the exudative response: n=5, p<0.03 (Wilcoxon signed rank test)
Description: Thirty New Zealand albino rabbits weighing between 2.5 and 3.0 kg were used for this study. The rabbits were treated in accordance with the guidelines of the Association for Research in Vision and Ophthalmology (ARVO). One eye of each animal was used for experimental purposes, the other serving as a control eye. Slit lamp and indirect funduscopic examination was performed on all eyes before and after euthanasia.
The rabbits were divided into six groups. Group 1 (n=5) received topical 4 mg/ml deoxycortisone acetate (Spectrum Chemical Corp). Group 2 (n=5) received topical 4 mg/ml 11 -deoxycorticosterone (Spectrum Chemical Corp). Group 3 (n=5) received topical 4 mg/ml 11-desoxycortisone (Spectrum Chemical Corp). Group 4 (n=5) received topical 4 mg/ml aldosterone (Farmabios, Italy). Group 5 (n=5) received topical 4 mg/ml deoxycorticosterone (Spectrum Chemical Corp). Group 6 (n=5) received topical fludrocortisone acetate (Farmabios, Italy).
The rabbits were anaesthetised with 1 ml of a mixture of ketamine hydrochloride (35 mg/kg, intramuscular) and xylazine hydrochloride (5 mg/kg, intramuscular). In all groups, drugs were applied topically to the right eye and saline was applied to the left eye four times (at time 0, 1, 2 and 3 hours). Drugs and saline were administered to the eye as a single 50 μL drop.
20 mg/ml dextran-isothiocyanate-fluorescein (FITC-dextran, Sigma) was prepared and a 20 mg/kg dose was injected into the marginal ear vein at time […].
Endotoxin (2.5 μg/kg) isolated from Salmonella typhimurium (Sigma) was injected into the same vein at the same time with the third drop occurring at time 2 hours.
The FITC-dextran concentration in the anterior chamber was determined using a prototype fluorophotometer (OcuMetrics, Mountain View, Calif.) 90 minutes after an endotoxin administration. This instrument has excitation wavelengths of approximately 410 to 490 nm, with emission wavelengths of approximately 520 to 630 nm. The fluorescence emitted by the FITC-dextran was determined in both left and right eyes.
Statistical analysis was performed, comparing the anterior chamber fluorescence measurements of the test and control eye of each animal. A paired Wilcoxon Signed Rank Test (StatXact) was used, with a one sided p-value.

VEGF receptor Flk-1 = assay: FACS analysis of Flk-1 expression in choroidal endothelial cells; format: cell-based; conditions: Example 1, FIG. 1; choroidal endothelial cells treated with PMA, compared to control cells
Description: (§1) To show the capacity of a mineralocorticoid, specifically fludrocortisone, to down-regulate receptors involved in biochemical pathways associated with oedema and exudative retinopathies, an assay was conducted looking at the activity of VEGF receptors Flk-1 and Flt-1 in choroidal endothelial cells. Flk-1 is known to be involved in cell proliferation whilst Flt-1 is involved in cell permeability.
(§2) The expression of Flk-1 and Flt-1 was measured, using fluorescence activated cell sorting (FACS) analysis, in untreated cells, cells treated with phorbolmyristate acetate (PMA), cells treated with PMA and then with the glucocorticoid triamcinolone acetonide (TA) and cells treated with PMA and then with the mineralocorticoid fludrocortisone. PMA is a model for pro-inflammatory cytokines and TA is known to […] the glucocorticoid receptor
(§3) The expression of Flk-1 and Flt-1 was also investigated in untreated choroidal endothelial cells, choroidal endothelial cells treated with Tumour Necrosis Factor-α (TNF-α) and choroidal endothelial cells treated with the mineralocorticoid fludrocortisone. TNF-α is a pro-inflammatory cytokine.

VEGF receptor Flt-1 = assay: FACS analysis of Flt-1 expression in choroidal endothelial cells; format: cell-based
Description: as §1, §2, §3

C[C@]12CC[C@H]3[C@@H](CCC4=CC(=O)CC[C@@]43C)[C@@H]1CC[C@@H]2C(=O)CO [11 -deoxycorticosterone]
exudative response (result in words) [1]: did not show a reduction in the exudative response

C[C@]12CCC(=O)C=C1CC[C@@H]1[C@@H]2CC[C@@]2(C)[C@H]1CC[C@]2(O)C(=O)CO [11-DC, 17α,21-dihydroxypregn-4-ene-3,20-dione]
Anterior Chamber Fluorophotometer Results, Mean [1]: 331 | Anterior Chamber Fluorophotometer Results ([1]; Rabbit 1): 696 | Anterior Chamber Fluorophotometer Results ([1]; Rabbit 2): 578 | Anterior Chamber Fluorophotometer Results ([1]; Rabbit 3): 141 | Anterior Chamber Fluorophotometer Results ([1]; Rabbit 4): 147 | Anterior Chamber Fluorophotometer Results ([1]; Rabbit 5): 92 | reduction in the exudative response [1]: 37%

C[C@]12CCC(=O)C=C1CC[C@@H]1[C@@H]2[C@@H](O)C[C@]2(C=O)[C@@H](C(=O)CO)CC[C@@H]12 [AS, 11β-11,21-dihydroxy-3,20-dioxopregen-4-en-18-al]
Anterior Chamber Fluorophotometer Results, Mean [1]: 248 | Anterior Chamber Fluorophotometer Results ([1]; Rabbit 1): 243 | Anterior Chamber Fluorophotometer Results ([1]; Rabbit 2): 75 | Anterior Chamber Fluorophotometer Results ([1]; Rabbit 3): 125 | Anterior Chamber Fluorophotometer Results ([1]; Rabbit 4): 540 | Anterior Chamber Fluorophotometer Results ([1]; Rabbit 5): 256 | exudative response (result in words) [1]: very variable

CC(=O)OCC(=O)[C@H]1CC[C@H]2[C@@H]3CCC4=CC(=O)CC[C@]4(C)[C@H]3CC[C@]12C [DA, 21-hydroxypregn-4-ene-3,20-dione 21 acetate]
Anterior Chamber Fluorophotometer Results, Mean [1]: 201 | Anterior Chamber Fluorophotometer Results ([1]; Rabbit 1): 220 | Anterior Chamber Fluorophotometer Results ([1]; Rabbit 2): 116 | Anterior Chamber Fluorophotometer Results ([1]; Rabbit 3): 455 | Anterior Chamber Fluorophotometer Results ([1]; Rabbit 4): 100 | Anterior Chamber Fluorophotometer Results ([1]; Rabbit 5): 113 | reduction in the exudative response [1]: 47%

C[C@]12CC[C@H]3[C@@H](CCC4=CC(=O)CC[C@@]43C)[C@@H]1CC[C@@H]2C(=O)CO [DS, 21-hydroxypregn-4-ene-3,20-dione]
Anterior Chamber Fluorophotometer Results, Mean [1]: 174 | Anterior Chamber Fluorophotometer Results ([1]; Rabbit 1): 340 | Anterior Chamber Fluorophotometer Results ([1]; Rabbit 2): 245 | Anterior Chamber Fluorophotometer Results ([1]; Rabbit 3): 59 | Anterior Chamber Fluorophotometer Results ([1]; Rabbit 4): 86 | Anterior Chamber Fluorophotometer Results ([1]; Rabbit 5): 140 | reduction in the exudative response [1]: 37%

CC(=O)OCC(=O)[C@@]1(O)CC[C@H]2[C@@H]3CCC4=CC(=O)CC[C@]4(C)[C@@]3(F)[C@@H](O)C[C@@]21C [FA, fludrocortisone acetate]
Anterior Chamber Fluorophotometer Results, Mean [1]: 166 | Anterior Chamber Fluorophotometer Results ([1]; Rabbit 1): 27 | Anterior Chamber Fluorophotometer Results ([1]; Rabbit 2): 86 | Anterior Chamber Fluorophotometer Results ([1]; Rabbit 3): 261 | Anterior Chamber Fluorophotometer Results ([1]; Rabbit 4): 445 | Anterior Chamber Fluorophotometer Results ([1]; Rabbit 5): 10 | reduction in the exudative response [1]: 34%

CCCCCCCCCCCCCC(=O)O[C@@H]1[C@@H](C)[C@@]2(O)[C@@H](C=C(CO)C[C@]3(O)C(=O)C(C)=C[C@@H]23)[C@@H]2C(C)(C)[C@]12OC(C)=O [PMA, phorbolmyristate acetate]
expression of Flk-1 (VEGF receptor Flk-1): increased | expression of Flt-1 (VEGF receptor Flt-1; Example 1, FIG. 1, choroidal endothelial cells treated with PMA): increased

TNF-α
expression of Flt-1 (VEGF receptor Flt-1; Example 2, FIG. 2, choroidal endothelial cells, compared to untreated control cells): higher levels of Flt-1
